Laboratory results reported in ChEMBL document CHEMBL3112395, “Synthesis and structure-activity relationship studies of N-terminal analogues of the antimicrobial peptide tridecaptin A(1)” (J Med Chem, 2014).
Converted amounts (≈) assume the structure as drawn.

Assays:
Enterococcus faecalis = assay: Antibacterial activity against Enterococcus faecalis ATCC 29212 assessed as growth inhibition by broth dilution method; format: functional
[1] = Cytotoxicity against HEK293 cells assessed as growth inhibition after 48 hrs by MTT assay; format: cell-based; conditions: human, read-out: MIC
Pseudomonas aeruginosa = assay: Antibacterial activity against Pseudomonas aeruginosa ATCC 27853 assessed as growth inhibition by broth dilution method; format: functional
Salmonella enterica = assay: Antibacterial activity against Salmonella enterica ATCC 13311 assessed as growth inhibition by broth dilution method; format: functional
Acinetobacter baumannii = assay: Antibacterial activity against Acinetobacter baumannii ATCC 19606 assessed as growth inhibition by broth dilution method; format: functional
Listeria monocytogenes = assay: Antibacterial activity against Listeria monocytogenes ATCC […] assessed as growth inhibition by broth dilution method; format: functional
Escherichia coli [2] = assay: Antibacterial activity against Escherichia coli ATCC 25922 assessed as growth inhibition by broth dilution method; format: functional
Klebsiella pneumoniae [3] = assay: Antibacterial activity against Klebsiella pneumoniae ATCC 13883 assessed as growth inhibition by broth dilution method; format: functional
Staphylococcus aureus = assay: Antibacterial activity against Staphylococcus aureus ATCC 29213 assessed as growth inhibition by broth dilution method; format: functional
[4] = Hemolytic activity in rabbit erythrocytes at 83 ug/mL after 30 mins relative to control; format: ADME, cell-based, Oryctolagus cuniculus, Erythrocyte; conditions: read-out: Activity
Enterococcus faecium = assay: Antibacterial activity against Enterococcus faecium ATCC 19434 assessed as growth inhibition by broth dilution method; format: functional
Campylobacter jejuni = assay: Antibacterial activity against Campylobacter jejuni NCTC 11168 assessed as growth inhibition by broth dilution method; format: functional
[5] = Antibacterial activity against multi-drug resistant Clostridium difficile 630 assessed as growth inhibition by broth dilution method; format: functional, Clostridioides difficile 630; conditions: Clostridioides difficile
Escherichia coli [6] = assay: Antibacterial activity against Escherichia coli O157:H7 assessed as growth inhibition by broth dilution method; format: functional
Enterobacter cloacae = assay: Antibacterial activity against multi-drug resistant Enterobacter cloacae 849 clinical isolate assessed as growth inhibition by broth dilution method; format: functional
Klebsiella pneumoniae [7] = assay: Antibacterial activity against multi-drug resistant Klebsiella pneumoniae KpCG clinical isolate assessed as growth inhibition by broth dilution method; format: functional

| SMILES | MIC (Enterococcus faecalis) | MCC at 48 h [1] | MIC (Pseudomonas aeruginosa) | MIC (Salmonella enterica) | MIC (Acinetobacter baumannii) | MIC (Listeria monocytogenes) | MIC (Escherichia coli [2]) | MIC (Klebsiella pneumoniae [3]) | MIC (Staphylococcus aureus) | hemolysis at 0.5 h, 83 ug/mL [4] | MIC (Enterococcus faecium) | MIC (Campylobacter jejuni) | MIC [5] | MIC (Escherichia coli [6]) | MIC (Enterobacter cloacae) | MIC (Klebsiella pneumoniae [7]) |
| --- | --- | --- | --- | --- | --- | --- | --- | --- | --- | --- | --- | --- | --- | --- | --- | --- |
| CC[C@H](C)CC[C@@H](O)CC(=O)N[C@@H](C(=O)N[C@H](CCN)C(=O)NCC(=O)N[C@H](CO)C(=O)N[C@H](Cc1c[nH]c2ccccc12)C(=O)N[C@@H](CO)C(=O)N[C@@H](CCN)C(=O)N[C@H](CCN)C(=O)N[C@@H](Cc1ccccc1)C(=O)N[C@@H](CCC(=O)O)C(=O)N[C@H](C(=O)N[C@@H](C(=O)N[C@@H](C)C(=O)O)[C@@H](C)CC)C(C)C)C(C)C | > 100 µg/mL | 200 µg/mL | 50 µg/mL (≈ 32.2 µM) | 6.25 µg/mL (≈ 4.03 µM) | 12.5 µg/mL (≈ 8.06 µM) | 50 µg/mL (≈ 32.2 µM) | 3.13 µg/mL (≈ 2.02 µM) | 3.13 µg/mL (≈ 2.02 µM) | > 100 µg/mL | 3.2% | > 100 µg/mL | 1.56 µg/mL (≈ 1.01 µM) | – | – | – | – |
| CC[C@@H](C)CC[C@@H](O)CC(=O)N[C@@H](C(=O)N[C@H](CCN)C(=O)NCC(=O)N[C@H](CO)C(=O)N[C@H](Cc1c[nH]c2ccccc12)C(=O)N[C@@H](CO)C(=O)N[C@@H](CCN)C(=O)N[C@H](CCN)C(=O)N[C@@H](Cc1ccccc1)C(=O)N[C@@H](CCC(=O)O)C(=O)N[C@H](C(=O)N[C@@H](C(=O)N[C@@H](C)C(=O)O)[C@@H](C)CC)C(C)C)C(C)C | > 100 µg/mL | – | 50 µg/mL (≈ 32.2 µM) | 6.25 µg/mL (≈ 4.03 µM) | 12.5 µg/mL (≈ 8.06 µM) | 100 µg/mL (≈ 64.5 µM) | 3.13 µg/mL (≈ 2.02 µM) | 6.25 µg/mL (≈ 4.03 µM) | > 100 µg/mL | – | > 100 µg/mL | 3.13 µg/mL (≈ 2.02 µM) | – | – | – | – |
| CC[C@H](C)[C@@H](NC(=O)[C@@H](NC(=O)[C@H](CCC(=O)O)NC(=O)[C@H](Cc1ccccc1)NC(=O)[C@@H](CCN)NC(=O)[C@H](CCN)NC(=O)[C@H](CO)NC(=O)[C@@H](Cc1c[nH]c2ccccc12)NC(=O)[C@@H](CO)NC(=O)CNC(=O)[C@@H](CCN)NC(=O)[C@H](N)C(C)C)C(C)C)C(=O)N[C@@H](C)C(=O)O | > 100 µg/mL | – | 100 µg/mL (≈ 71.7 µM) | 100 µg/mL (≈ 71.7 µM) | > 100 µg/mL | > 100 µg/mL | 100 µg/mL (≈ 71.7 µM) | 50 µg/mL (≈ 35.9 µM) | > 100 µg/mL | 0.5% | > 100 µg/mL | > 100 µg/mL | – | – | – | – |
| CCCC(=O)N[C@@H](C(=O)N[C@H](CCN)C(=O)NCC(=O)N[C@H](CO)C(=O)N[C@H](Cc1c[nH]c2ccccc12)C(=O)N[C@@H](CO)C(=O)N[C@@H](CCN)C(=O)N[C@H](CCN)C(=O)N[C@@H](Cc1ccccc1)C(=O)N[C@@H](CCC(=O)O)C(=O)N[C@H](C(=O)N[C@@H](C(=O)N[C@@H](C)C(=O)O)[C@@H](C)CC)C(C)C)C(C)C | > 100 µg/mL | – | > 100 µg/mL | 25 µg/mL (≈ 17.1 µM) | 100 µg/mL (≈ 68.3 µM) | > 100 µg/mL | 12.5 µg/mL (≈ 8.53 µM) | 25 µg/mL (≈ 17.1 µM) | > 100 µg/mL | 0.8% | > 100 µg/mL | 12.5 µg/mL (≈ 8.53 µM) | – | – | – | – |
| CCCCCCCC(=O)N[C@@H](C(=O)N[C@H](CCN)C(=O)NCC(=O)N[C@H](CO)C(=O)N[C@H](Cc1c[nH]c2ccccc12)C(=O)N[C@@H](CO)C(=O)N[C@@H](CCN)C(=O)N[C@H](CCN)C(=O)N[C@@H](Cc1ccccc1)C(=O)N[C@@H](CCC(=O)O)C(=O)N[C@H](C(=O)N[C@@H](C(=O)N[C@@H](C)C(=O)O)[C@@H](C)CC)C(C)C)C(C)C | 100 µg/mL (≈ 65.8 µM) | 100 µg/mL | 25 µg/mL (≈ 16.4 µM) | 6.25 µg/mL (≈ 4.11 µM) | 12.5 µg/mL (≈ 8.22 µM) | 25 µg/mL (≈ 16.4 µM) | 3.13 µg/mL (≈ 2.06 µM) | 3.13 µg/mL (≈ 2.06 µM) | 100 µg/mL (≈ 65.8 µM) | 4.7% | 50 µg/mL (≈ 32.9 µM) | 0.78 µg/mL (≈ 0.513 µM) | 12.7 µg/mL (≈ 8.35 µM) | 0.43 µg/mL (≈ 0.283 µM) | 0.43 µg/mL (≈ 0.283 µM) | 2.33 µg/mL (≈ 1.53 µM) |
| CCCCCCCCCCCC(=O)N[C@@H](C(=O)N[C@H](CCN)C(=O)NCC(=O)N[C@H](CO)C(=O)N[C@H](Cc1c[nH]c2ccccc12)C(=O)N[C@@H](CO)C(=O)N[C@@H](CCN)C(=O)N[C@H](CCN)C(=O)N[C@@H](Cc1ccccc1)C(=O)N[C@@H](CCC(=O)O)C(=O)N[C@H](C(=O)N[C@@H](C(=O)N[C@@H](C)C(=O)O)[C@@H](C)CC)C(C)C)C(C)C | > 100 µg/mL | – | > 100 µg/mL | 50 µg/mL (≈ 31.7 µM) | 50 µg/mL (≈ 31.7 µM) | 50 µg/mL (≈ 31.7 µM) | 12.5 µg/mL (≈ 7.93 µM) | 12.5 µg/mL (≈ 7.93 µM) | > 100 µg/mL | 82.2% | 100 µg/mL (≈ 63.4 µM) | 0.4 µg/mL (≈ 0.254 µM) | – | – | – | – |
| CC[C@H](C)[C@@H](NC(=O)[C@@H](NC(=O)[C@H](CCC(=O)O)NC(=O)[C@H](Cc1ccccc1)NC(=O)[C@@H](CCN)NC(=O)[C@H](CCN)NC(=O)[C@H](CO)NC(=O)[C@@H](Cc1c[nH]c2ccccc12)NC(=O)[C@@H](CO)NC(=O)CNC(=O)[C@@H](CCN)NC(=O)[C@H](NC(=O)OCC1c2ccccc2-c2ccccc21)C(C)C)C(C)C)C(=O)N[C@@H](C)C(=O)O | 50 µg/mL (≈ 30.9 µM) | – | > 100 µg/mL | 6.25 µg/mL (≈ 3.87 µM) | 12.5 µg/mL (≈ 7.73 µM) | 12.5 µg/mL (≈ 7.73 µM) | 6.25 µg/mL (≈ 3.87 µM) | 6.25 µg/mL (≈ 3.87 µM) | 100 µg/mL (≈ 61.8 µM) | 100% | 25 µg/mL (≈ 15.5 µM) | 0.78 µg/mL (≈ 0.482 µM) | – | – | – | – |
